For one test, the target named is T1, CmeB (Campylobacter jejuni, UniProt Q8RTE4).
T1 construct: full-length, N-terminal 6xHis (pET15b), E. coli BL21(DE3)deltaacrB host; homotrimer
Briefly: isothermal titration calorimetry. It counts as binding. The conditions noted are these: 20 mM Na-HEPES pH 7.5, 0.03% DDM, room temperature; 20 μM monomer in cell; no cyclooctatetraene. In general terms: Isothermal titration calorimetry measures the heat released or taken up as one component is titrated into another.

Test [1] has as its target Campylobacter jejuni CmeB multidrug efflux pump (Campylobacter jejuni) (UniProt Q8RTE4). In words: crystal structure.

From publication PMC5537355, “Structures and transport dynamics of a Campylobacter jejuni multidrug efflux pump” (Nature Communications, 2017) come the findings set out here.

By stoichiometry N is commonly meant a count of units in the complex or per binding partner.

On to `C[C@H](CCC(=O)NCCS(=O)(=O)O)[C@H]1CC[C@H]2[C@@H]3CC[C@@H]4C[C@H](O)CC[C@]4(C)[C@H]3C[C@H](O)[C@]12C` [taurodeoxycholate], for which, on CmeB, the KD result is listed as “examine the binding of taurodeoxycholate to the purified CmeB transporter”.

Turning to “Campylobacter jejuni CmeB multidrug efflux pump (from UniProt Q8RTE4) (natural protein)”, in test [1], the stoichiometry N amounted to 3.
